# Reference: ChEMBL document CHEMBL4602619, “Covalent inactivation of Mycobacterium thermoresistibile inosine-5'-monophosphate dehydrogenase (IMPDH)” (Bioorg Med Chem Lett, 2020)
# The source made the active and inactive calls. The calls are words filed in the database; no cut-off is given here.
# Test system: Mycobacterium thermoresistibile
# Assay: Covalent binding affinity to Mycobacterium thermoresistibile IMPDH deltaCBS variant assessed as adduct formation at Cys341 by measuring 330 Da shift of increment in protein mass measured under denaturing conditions by ESI-MS spectral analysis
smiles,measurement,value
O=P(O)(O)OC[C@H]1O[C@@H](n2cnc3c(Cl)ncnc32)[C@H](O)[C@@H]1O,Activity,Active
